What was measured:
Test in all cases: relative viability (nuclei count vs DMSO), 5 days (fraction); higher = more cells survive
NCI-H2342 = test system: NCI-H2342
Outline: (§1)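 Relative viability equals treated-well nuclei counts divided by vehicle-well nuclei counts. Counts came from 4× images of lung cancer cell lines grown in 1536-well plates for 5 days after pin-tool dosing on the day after seeding. Dosing used one drug alone or a fixed anchor-drug dose plus five library-drug doses (not always all listed) in √10 steps, and values are medians of duplicate plates.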

HARA = test system: HARA
Outline: as §1

NCI-H441 = test system: NCI-H441
Outline: as §1

NCI-H1650 = test system: NCI-H1650
Outline: as §1

201T = test system: 201T
Outline: as §1

NCI-H358 = test system: NCI-H358
Outline: as §1

BEN = test system: BEN
Outline: as §1

HCC-15 = test system: HCC-15
Outline: as §1

NCI-H23 = test system: NCI-H23
Outline: as §1

NCI-H1975 = test system: NCI-H1975
Outline: as §1

COR-L23 = test system: COR-L23
Outline: as §1

SK-MES-1 = test system: SK-MES-1
Outline: as §1

NCI-H1437 = test system: NCI-H1437
Outline: as §1

EKVX = test system: EKVX
Outline: as §1

NCI-H1666 = test system: NCI-H1666
Outline: as §1

NCI-H650 = test system: NCI-H650
Outline: as §1

SW 900 = test system: SW 900
Outline: as §1

NCI-H596 = test system: NCI-H596
Outline: as §1

A-427 = test system: A-427
Outline: as §1

NCI-H838 = test system: NCI-H838
Outline: as §1

HCC-827 = test system: HCC-827
Outline: as §1

## CCN(CC)CCCCNc1ncc2cc(-c3cc(OC)cc(OC)c3)c(NC(=O)NC(C)(C)C)nc2n1 + COc1cc2c(Oc3ccc(NC(=O)C4(C(=O)Nc5ccc(F)cc5)CC4)cc3F)ccnc2cc1OCCCN1CCOCC1 [Foretinib] (partner 0.25 µM)
NCI-H2342; first compound 0.01 µM
  relative viability: 1.19
NCI-H2342; first compound 0.03162 µM
  relative viability: 1.23
NCI-H2342; first compound 0.1 µM
  relative viability: 1.19
NCI-H2342; first compound 0.3162 µM
  relative viability: 1.03
NCI-H2342; first compound 1 µM
  relative viability: 1
HARA; first compound 0.01 µM
  relative viability: 0.996
HARA; first compound 0.03162 µM
  relative viability: 0.848
HARA; first compound 0.1 µM
  relative viability: 0.998
HARA; first compound 0.3162 µM
  relative viability: 0.985
HARA; first compound 1 µM
  relative viability: 0.493
NCI-H441; first compound 0.01 µM
  relative viability: 1.02
NCI-H441; first compound 0.03162 µM
  relative viability: 1.19
NCI-H441; first compound 0.1 µM
  relative viability: 1.04
NCI-H441; first compound 0.3162 µM
  relative viability: 1.04
NCI-H441; first compound 1 µM
  relative viability: 0.918
NCI-H1650; first compound 0.01 µM
  relative viability: 1.26
NCI-H1650; first compound 0.03162 µM
  relative viability: 1.11
NCI-H1650; first compound 0.1 µM
  relative viability: 1.1
NCI-H1650; first compound 0.3162 µM
  relative viability: 1.2
NCI-H1650; first compound 1 µM
  relative viability: 1.12
201T; first compound 0.03162 µM
  relative viability: 1.06
201T; first compound 0.1 µM
  relative viability: 1.2
201T; first compound 0.3162 µM
  relative viability: 1.05
201T; first compound 1 µM
  relative viability: 1.03
NCI-H358; first compound 0.01 µM
  relative viability: 0.71
NCI-H358; first compound 0.03162 µM
  relative viability: 0.638
NCI-H358; first compound 0.1 µM
  relative viability: 0.679
NCI-H358; first compound 0.3162 µM
  relative viability: 0.815
NCI-H358; first compound 1 µM
  relative viability: 0.625
BEN; first compound 0.01 µM
  relative viability: 0.597
BEN; first compound 0.03162 µM
  relative viability: 0.544
BEN; first compound 0.1 µM
  relative viability: 0.796
BEN; first compound 0.3162 µM
  relative viability: 0.618
BEN; first compound 1 µM
  relative viability: 0.382
HCC-15; first compound 0.01 µM
  relative viability: 1.04
HCC-15; first compound 0.03162 µM
  relative viability: 1.19
HCC-15; first compound 0.1 µM
  relative viability: 1.03
HCC-15; first compound 0.3162 µM
  relative viability: 1.1
HCC-15; first compound 1 µM
  relative viability: 0.989
NCI-H23; first compound 0.01 µM
  relative viability: 1.01
NCI-H23; first compound 0.03162 µM
  relative viability: 0.831
NCI-H23; first compound 0.1 µM
  relative viability: 1.23
NCI-H23; first compound 0.3162 µM
  relative viability: 0.984
NCI-H23; first compound 1 µM
  relative viability: 0.955
NCI-H1975; first compound 0.01 µM
  relative viability: 0.931
NCI-H1975; first compound 0.03162 µM
  relative viability: 0.956
NCI-H1975; first compound 0.1 µM
  relative viability: 1.29
NCI-H1975; first compound 0.3162 µM
  relative viability: 1.04
NCI-H1975; first compound 1 µM
  relative viability: 0.867
COR-L23; first compound 0.01 µM
  relative viability: 1.11
COR-L23; first compound 0.03162 µM
  relative viability: 0.981
COR-L23; first compound 0.1 µM
  relative viability: 1.14
COR-L23; first compound 0.3162 µM
  relative viability: 1.04
COR-L23; first compound 1 µM
  relative viability: 1.05
SK-MES-1; first compound 0.01 µM
  relative viability: 0.973
SK-MES-1; first compound 0.03162 µM
  relative viability: 1.17
SK-MES-1; first compound 0.1 µM
  relative viability: 0.88
SK-MES-1; first compound 0.3162 µM
  relative viability: 1.12
SK-MES-1; first compound 1 µM
  relative viability: 0.889
NCI-H1437; first compound 0.01 µM
  relative viability: 1.47
NCI-H1437; first compound 0.03162 µM
  relative viability: 1.21
NCI-H1437; first compound 0.1 µM
  relative viability: 1.3
NCI-H1437; first compound 0.3162 µM
  relative viability: 1.3
NCI-H1437; first compound 1 µM
  relative viability: 1.16
EKVX; first compound 0.01 µM
  relative viability: 0.589
EKVX; first compound 0.03162 µM
  relative viability: 0.471
EKVX; first compound 0.1 µM
  relative viability: 0.781
EKVX; first compound 0.3162 µM
  relative viability: 0.949
EKVX; first compound 1 µM
  relative viability: 0.758
NCI-H1666; first compound 0.01 µM
  relative viability: 0.936
NCI-H1666; first compound 0.03162 µM
  relative viability: 0.979
NCI-H1666; first compound 0.1 µM
  relative viability: 0.977
NCI-H1666; first compound 0.3162 µM
  relative viability: 0.892
NCI-H1666; first compound 1 µM
  relative viability: 0.919
NCI-H650; first compound 0.01 µM
  relative viability: 0.968
NCI-H650; first compound 0.03162 µM
  relative viability: 0.992
NCI-H650; first compound 0.1 µM
  relative viability: 1.06
NCI-H650; first compound 0.3162 µM
  relative viability: 1.09
NCI-H650; first compound 1 µM
  relative viability: 1.13
SW 900; first compound 0.01 µM
  relative viability: 0.891
SW 900; first compound 0.03162 µM
  relative viability: 0.733
SW 900; first compound 0.3162 µM
  relative viability: 0.745
SW 900; first compound 1 µM
  relative viability: 0.557
NCI-H596; first compound 0.01 µM
  relative viability: 0.852
NCI-H596; first compound 0.03162 µM
  relative viability: 0.919
NCI-H596; first compound 0.1 µM
  relative viability: 0.943
NCI-H596; first compound 0.3162 µM
  relative viability: 0.931
NCI-H596; first compound 1 µM
  relative viability: 0.73
A-427; first compound 0.01 µM
  relative viability: 1.18
A-427; first compound 0.03162 µM
  relative viability: 1.11
A-427; first compound 0.1 µM
  relative viability: 1.18
A-427; first compound 0.3162 µM
  relative viability: 1.1
A-427; first compound 1 µM
  relative viability: 0.99
NCI-H838; first compound 0.01 µM
  relative viability: 1.01
NCI-H838; first compound 0.03162 µM
  relative viability: 0.958
NCI-H838; first compound 0.1 µM
  relative viability: 1.19
NCI-H838; first compound 0.3162 µM
  relative viability: 0.986
NCI-H838; first compound 1 µM
  relative viability: 0.789
HCC-827; first compound 0.01 µM
  relative viability: 1.05
HCC-827; first compound 0.03162 µM
  relative viability: 1.01
HCC-827; first compound 0.1 µM
  relative viability: 1.19
HCC-827; first compound 0.3162 µM
  relative viability: 1.17
HCC-827; first compound 1 µM
  relative viability: 1.05

Source: the supplement of paper PMC10307832
